In brackets after ≈: the same amount, converted by molar mass.
Target: acetylcholinesterase (acetyl cholinesterase)
Test: in vitro AChE inhibition assay
Format: biochemical, Electrophorus electricus

SMILES	IC50 (μg ml^-1) ± SEM
O=C1C(=O)N(CCOc2ccccc2)c2ccc(Br)cc21 [PI9, 5-Bromo-1-(2-phenoxyethyl)indoline-2,3-dione]	0.91 ± 0.083 µg/mL (≈ 2.63 µM)
O=C1C(=O)N(CCOc2ccc(Br)cc2)c2ccc(Br)cc21 [PI11, 5-Bromo-1-(2-(4-bromophenoxy)ethyl)indoline-2,3-dione]	1.14 ± 0.013 µg/mL (≈ 2.68 µM)
O=C1C(=O)N(CCOc2ccc(Cl)cc2)c2ccc(Cl)cc21 [PI6, 5-Chloro-1-(2-(4-chlorophenoxy)ethyl)indoline-2,3-dione]	0.91 ± 0.015 µg/mL (≈ 2.71 µM)
O=C1C(=O)N(CCOc2ccccc2)c2ccccc21 [PI1, 1-(2-Phenoxyethyl)indoline-2,3-dione]	0.52 ± 0.073 µg/mL (≈ 1.95 µM)
O=C1C(=O)N(CCOc2ccc(Cl)cc2)c2ccc(Br)cc21 [PI10, 5-Bromo-1-(2-(4-chlorophenoxy)ethyl)indoline-2,3-dione]	0.98 ± 0.055 µg/mL (≈ 2.57 µM)
O=C1C(=O)N(CCOc2ccc(F)cc2)c2ccc(Br)cc21 [PI12, 5-Bromo-1-(2-(4-fluorophenoxy)ethyl)indoline-2,3-dione]	1.31 ± 0.083 µg/mL (≈ 3.6 µM)
O=C1C(=O)N(CCOc2ccc(Cl)cc2)c2ccccc21 [PI2, 1-(2-(4-Chlorophenoxy)ethyl)indoline-2,3-dione]	0.72 ± 0.012 µg/mL (≈ 2.39 µM)
O=C1C(=O)N(CCOc2ccc(F)cc2)c2ccccc21 [PI4, 1-(2-(4-Fluorophenoxy)ethyl)indoline-2,3-dione]	0.68 ± 0.011 µg/mL (≈ 2.38 µM)

Source: PMC8979220 (RSC Advances, 2022)
